Assay results taken from patent US20020164348A1 (priority 2000, published 2002).

How the values were obtained:
poliovirus polymerase [1] = target: T1, poliovirus polymerase (Poliovirus type 1, UniProt P03300)
poliovirus polymerase [2] = target: T1, poliovirus polymerase; remark: listed apart in the source
poliovirus polymerase [3] = target: T1, poliovirus polymerase; remark: listed apart in the source
[4] = target: lattices of poliovirus polymerase (Poliovirus type 1, UniProt P03300)
lattices of poliovirus polymerase, sequence (P03300 1749-2209 limits assumed): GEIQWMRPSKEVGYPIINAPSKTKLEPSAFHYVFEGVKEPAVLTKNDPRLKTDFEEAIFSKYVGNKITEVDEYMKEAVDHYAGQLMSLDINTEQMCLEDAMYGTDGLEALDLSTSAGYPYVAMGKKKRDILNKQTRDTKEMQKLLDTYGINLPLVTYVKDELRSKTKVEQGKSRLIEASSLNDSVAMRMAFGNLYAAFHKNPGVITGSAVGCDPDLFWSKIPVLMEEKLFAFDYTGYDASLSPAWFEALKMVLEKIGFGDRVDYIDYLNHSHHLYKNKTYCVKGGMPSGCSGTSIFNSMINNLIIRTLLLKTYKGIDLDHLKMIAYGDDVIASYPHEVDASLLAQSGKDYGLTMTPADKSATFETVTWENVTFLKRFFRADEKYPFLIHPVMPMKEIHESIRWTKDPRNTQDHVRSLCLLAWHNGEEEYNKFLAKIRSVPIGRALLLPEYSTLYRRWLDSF

T1 sequence (P03300 1749-2209 limits assumed): as above

## KPHKCTFEGCRKSYSRSTNLRRHLNSH (SEQ ID NO:5) [Peptide 1]
Poliovirus polymerase [1]
  amount of UTP incorporated: diminished
Poliovirus polymerase [2]
  cooperativity of the elongation reaction: loss of cooperativity
  inhibition of poliovirus polymerase: inhibits poliovirus polymerase effectively
  inhibition of the polymerase reaction: marked inhibition
Poliovirus polymerase [3]
  UTP incorporation: dramatic stimulation
[4]
  sheets and tubes of polymerase by electron microscopy: replaced by large aggregates and more narrow ribbons
